Test results published in ChEMBL document CHEMBL3853319, “Tyrosine Kinase Inhibitors. 20. Optimization of Substituted Quinazoline and Pyrido[3,4-d]pyrimidine Derivatives as Orally Active, Irreversible Inhibitors of the Epidermal Growth Factor Receptor Family” (J Med Chem, 2016).

Tests used:
[1] = in vivo; conditions: Sprague-Dawley, rat, po, 50 mg/kg
[2] = Half life in human plasma at 30 to 60 mg; assay type: ADME, cell-free
[3] = in vivo; conditions: beagle, dog, iv, 5 mg/kg
[4] = in vivo; conditions: Sprague-Dawley, rat, iv, 5 mg/kg
[5] = in vivo; conditions: cynomolgus monkey, po, 25 mg/kg
[6] = in vivo; conditions: Sprague-Dawley, rat, iv, 5 mg/kg; remark: listed apart in the source
[7] = in vivo; conditions: cynomolgus monkey, iv, 5 mg/kg
[8] = in vitro; conditions: rat, liver microsomes
[9] = in vitro; conditions: human, hepatocytes
[10] = in vivo; conditions: cynomolgus monkey, po, 25 mg/kg; remark: listed apart in the source
[11] = in vivo; conditions: beagle, dog, po, 50 mg/kg
[12] = in vivo; conditions: Sprague-Dawley, rat, po, 50 mg/kg; remark: listed apart in the source
[13] = in vivo; conditions: Sprague-Dawley, rat, po, 50 mg/kg; remark: listed apart in the source
[14] = in vitro; conditions: rat, hepatocytes
[15] = Half life in overnight fasted cynomolgus monkey at 5 mg/kg/day, iv by LC/MS analysis; assay type: ADME, organism-based, Macaca fascicularis; conditions: in vivo
[16] = Half life in Beagle dog at 50 mg/kg/day, po by LC/MS analysis; assay type: ADME, organism-based, Canis lupus familiaris; conditions: in vivo
[17] = in vivo; conditions: beagle, dog, iv, 5 mg/kg; remark: listed apart in the source
[18] = in vivo; conditions: Sprague-Dawley, rat, po, 50 mg/kg; remark: listed apart in the source
[19] = in vivo; conditions: Sprague-Dawley, rat, iv, 5 mg/kg; remark: listed apart in the source
[20] = in vivo; conditions: cynomolgus monkey, po, 25 mg/kg; remark: listed apart in the source
[21] = Half life in overnight fasted cynomolgus monkey at 25 mg/kg/day, po by LC/MS analysis; assay type: ADME, organism-based, Macaca fascicularis; conditions: in vivo
[22] = in vitro; conditions: human, liver microsomes
[23] = in vivo; conditions: beagle, dog, iv, 5 mg/kg; remark: listed apart in the source
[24] = Terminal half life in patient plasma with advanced solid tumor administered at 75 mg; assay type: ADME; conditions: human, read-out: beta t1/2 (converted)

COc1cc2ncnc(Nc3ccc(F)c(Cl)c3)c2cc1NC(=O)/C=C/CN1CCCCC1 [DACOMITINIB ANHYDROUS]
Cmax at 144 h [1]: 630 ng/mL
half-life [2]: 59 h
half-life [3]: 15.9 h
Vd at 144 h [4]: 34.2 L/kg
AUC at 144 h [5]: 5400 ng·h/mL
half-life [6]: 9.8 h
clearance at 144 h [7]: 44.1 mL/min/kg
half-life at 5 µM [8]: > 0.667 h
half-life at 1 µM [9]: 4.15 h
bioavailability at 144 h [10]: 56%
AUC at 144 h [11]: 25200 ng·h/mL
half-life [12]: 19.4 h
bioavailability at 144 h [13]: 80%
half-life at 1 µM [14]: 2.38 h
half-life [15]: 5.7 h
half-life [16]: 20.9 h
Vd at 144 h [17]: 28 L/kg
AUC at 144 h [18]: 20500 ng·h/mL
AUC at 144 h [19]: 2100 ng·h/mL
Cmax at 144 h [20]: 220 ng/mL
half-life [21]: 12.1 h
half-life at 5 µM [22]: > 0.667 h
clearance at 144 h [23]: 24.4 mL/min/kg

COc1cc2ncnc(Nc3ccc(F)c(Cl)c3)c2cc1OCCCN1CCOCC1 [GEFITINIB]
half-life at 5 µM [8]: > 0.667 h
half-life at 1 µM [9]: 3.75 h
half-life at 1 µM [14]: 1.68 h
half-life at 5 µM [22]: > 0.667 h

CCOc1cc2ncc(C#N)c(Nc3ccc(F)c(Cl)c3)c2cc1NC(=O)/C=C/CN(C)C [PELITINIB]
half-life [24]: 21.7 h
